Activity calls are given as the source filed them. The calls are words filed in the database; no cut-off is given here.

The subject of the test is Drosophila melanogaster. The experiment in a line: Antialzheimer disease activity in heterozygous transgenic Alzheimer's disease model fruit fly under control of elav-Gal4'C155 (P35*H29.3) expressing Abeta42 assessed as attenuation of cognitive deterioration by measuring increase in performance index by Pavlovian olfactory test. The format is functional, organism-based.
Take `COc1ccc(C(=O)[C@H]2CO[C@@H](c3ccc(OC)c(OC)c3)[C@@H]2C)cc1OC` (racemic): the result was Active.

Regarding `C/C=C/c1ccc(O[C@H](C)[C@@H](O)c2cc(OC)c(OC)c(OC)c2)c(OC)c1` (relative stereo), the result was Active.

`COc1cc([C@H]2O[C@@H](c3ccc(OC)c(OC)c3)[C@H](C)[C@@H]2C)ccc1O`: the outcome was Active.

Turning to `C/C=C/c1cc(OC)c2c(c1)[C@@H](C)[C@H](c1ccc(OC)c(OC)c1)O2` (relative stereo), the result was Active.

Consider `CC12CC3CC(C)(C1)CC(N)(C3)C2`, for which the outcome was Active.

The values are drawn from ChEMBL document CHEMBL4184202, “New lignans attenuating cognitive deterioration of Aβ transgenic flies discovered in Acorus tatarinowii” (Bioorg Med Chem Lett, 2018).
